Data as given in ChEMBL document CHEMBL1201862, “PubChem BioAssay data set” (2004).
Calls of active or inactive are those of the source.

What was measured:
[1] = target: Potassium channel subfamily K member 9 (Homo sapiens, UniProt Q9NPC2); experiment: KCNK9 flux blockade, concentration-response – cell-based, FluxOR thallium flux, selectivity assay for TASK1 inhibitor project, SAR follow-up (AID 652211); format: functional;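 note: potency is for inhibitors of the channel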
[2] = Late stage assay provider results from the probe development effort to identify selective inhibitors of heat shock protein 90 (HSP90): Absorbance-based cell proliferation assay in SKBR3 cells.; format: functional; settings: SK-BR-3
[3] = Late stage assay provider results from the probe development effort to identify selective inhibitors of heat shock protein 90 (HSP90): Absorbance-based cell proliferation assay in MCF7 cells.; format: functional
[4] = inhibitors of non-replicating M. tuberculosis, dose response, luciferase, dry powder (AID 651619); format: functional; settings: Mycobacterium tuberculosis
[5] = HeLa cell viability loss – plate reader, dry powder, cytotoxicity control, dose response (AID 651946); format: functional, cell-based
[6] = viability loss in HEK293T cells – cell-based, CellTiter-Glo luminescence, dry powder, set 6, cytotoxicity control, dose response (AID 651949); format: functional; settings: HEK293
[7] = inhibitors of non-replicating M. tuberculosis, dose response, luciferase, dry powder (AID 651620); format: functional; settings: Mycobacterium tuberculosis
[8] = growth inhibition of replicating M. tuberculosis, dose response, counter-screen, dry powder, IC90 (AID 651617); format: functional; settings: Mycobacterium tuberculosis
[9] = viability loss in HepG2 hepatoma cells – cell-based, ATP luminescence, cherry-pick, activator set 2, cytotoxicity control, dose response (AID 1053143); format: functional
CHO = CHO cell viability loss, potency – luminescence, cytotoxicity control for TLR9-MyD88 binding inhibitor project, dose response (AID 588339); format: functional, cell-based, hamster; settings: Cricetulus griseus;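 note: CHO cells stably coexpressing TLR9 and MyD88 fusions from primary screen; compound exposure lasted 48 hours before viability readout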
Beta Lactamase = Beta Lactamase (Pseudomonas aeruginosa, UniProt Q932Y6); experiment: BLA reporter interference, concentration series – BLA reporter cells, FRET fluorescence, artefact control for TLR9-MyD88 binding inhibitor project, dose response (AID 588341); format: cell-based;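 note: cell based assay in CHO-K1 cells stably expressing beta-lactamase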
[10] = target: Photoreceptor-specific nuclear receptor (Homo sapiens, UniProt Q9Y5X4); format: functional, cell-based;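 note: CHO-S cells with Gal4-NCOR and VP16-NR2E3 two-hybrid luciferase reporter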
[11] = Late stage assay provider counterscreen for TLR9 inhibitors: absorbance-based cell-based MTT cytotoxicity assay.; format: functional
[12] = cervical cancer cell viability loss – HeLa, 24 h, plate reader, powder samples, set 3, cytotoxicity control, dose response (AID 651864); format: functional, cell-based
[13] = HeLa cell viability loss – 24 h, dry powder, set 2, cytotoxicity control, dose response (AID 651774); format: functional, cell-based
[14] = HEK293 cell viability loss – cherry-picked samples, cytotoxicity control, dose response (AID 1053185); format: functional, cell-based
[15] = Dd2 parasite growth inhibition in erythrocytes – SYBR Green, dry powder samples, set 9, dose response (AID 1159568); format: functional, cell-based
[16] = CTGF mRNA reduction in DLD1 cells – cell-based, DLD1 colon cancer, RT-qPCR, cherry-pick, dose response (AID 1053122); format: functional; settings: Cancer cell lines
[17] = growth inhibition of yeast DHODH-expressing 3D7 parasites – SYBR Green, dry powder samples, dose response (AID 1159570); format: functional, cell-based;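 note: parasite growth measured after 72 hours of compound exposure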
[18] = toxicity to human HepG2 hepatoma cells – cell-based, plate reader, dry powder samples, cytotoxicity control, dose response (AID 1159569); format: functional;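 note: inhibitor potency with signal falling toward the positive control level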
[19] = P. falciparum Dd2 growth inhibitors, dose response, SYBR Green, cherry-picked samples (AID 1159567); format: functional, cell-based
[20] = Dd2 malaria parasite growth inhibition potency – SYBR Green, dry powder samples, dose response (AID 1159566); format: functional, cell-based;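 note: potency for growth inhibition with lower SYBR green DNA signal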
[21] = toxicity to human hepatoma HepG2 cells – cell-based, cherry-picked samples, cytotoxicity control, dose response (AID 1159577); format: functional
[22] = growth inhibition of PfATP4-mutant resistant parasites – NITD609-resistant line, SYBR Green, dry powder, dose response (AID 1159571); format: functional, cell-based;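 note: parasites synchronized at ring stage by sorbitol before testing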

Chain of Beta Lactamase (Q932Y6 whole entry, the tested form may be a part): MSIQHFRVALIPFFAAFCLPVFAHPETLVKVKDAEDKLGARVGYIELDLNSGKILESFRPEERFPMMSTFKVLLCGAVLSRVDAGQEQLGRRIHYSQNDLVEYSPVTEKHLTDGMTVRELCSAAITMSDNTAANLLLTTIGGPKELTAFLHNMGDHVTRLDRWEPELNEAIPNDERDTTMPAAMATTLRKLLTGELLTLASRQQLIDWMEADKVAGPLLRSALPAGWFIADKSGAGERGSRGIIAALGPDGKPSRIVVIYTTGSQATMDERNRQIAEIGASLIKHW
Chain of Potassium channel subfamily K member 9 (Q9NPC2 whole entry): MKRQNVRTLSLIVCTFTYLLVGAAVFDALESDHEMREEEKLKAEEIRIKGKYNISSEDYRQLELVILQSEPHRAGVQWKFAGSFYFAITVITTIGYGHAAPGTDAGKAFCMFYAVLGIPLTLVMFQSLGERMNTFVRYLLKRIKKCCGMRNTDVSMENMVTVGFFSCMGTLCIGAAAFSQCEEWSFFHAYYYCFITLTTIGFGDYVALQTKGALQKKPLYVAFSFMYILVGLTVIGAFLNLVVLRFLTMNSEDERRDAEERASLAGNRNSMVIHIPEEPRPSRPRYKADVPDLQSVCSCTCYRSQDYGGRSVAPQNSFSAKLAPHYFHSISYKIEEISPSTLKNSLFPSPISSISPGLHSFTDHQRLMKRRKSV
Chain of Photoreceptor-specific nuclear receptor (Q9Y5X4 whole entry, the tested form may be a part): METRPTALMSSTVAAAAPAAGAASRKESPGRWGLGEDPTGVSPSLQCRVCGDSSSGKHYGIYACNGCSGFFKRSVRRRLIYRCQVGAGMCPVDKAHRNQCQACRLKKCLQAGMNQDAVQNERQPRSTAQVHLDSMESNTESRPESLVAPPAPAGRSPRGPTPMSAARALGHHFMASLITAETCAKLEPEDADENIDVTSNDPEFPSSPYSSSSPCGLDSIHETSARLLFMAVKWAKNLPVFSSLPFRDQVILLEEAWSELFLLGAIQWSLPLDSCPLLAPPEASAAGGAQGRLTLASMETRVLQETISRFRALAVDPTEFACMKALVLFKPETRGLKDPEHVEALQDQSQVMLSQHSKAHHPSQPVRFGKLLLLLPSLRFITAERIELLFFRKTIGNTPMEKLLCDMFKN

**Q.** For `Cc1cccc(C(=O)Nc2cccc(NC(=O)c3ccco3)c2)c1`, which IC50 [1] is on record?
**A.** 1.67 µM (active)

**Q.** For `O=c1oc2ccc(OCCc3ccc(F)cc3)cc2cc1Br`, which IC50 [2] is on record?
**A.** 91.7 µM (inactive)

**Q.** What about the IC50 [3] of the same compound?
**A.** > 100 µM (inactive)

**Q.** Which IC90 [4] does the source give for `COc1cccc(-c2nnc(SCc3ccccn3)o2)c1` here?
**A.** 4 µM (active)

**Q.** What about the AC50 [5] of the same compound?
**A.** > 52 µM (inactive)

**Q.** And the AC50 [6]?
**A.** > 52 µM (inactive)

**Q.** What about the IC90 [7] of the same compound?
**A.** 4 µM (active)

**Q.** What about the IC90 [8] of the same compound?
**A.** 125 µM (active)

**Q.** With `CCC(=O)Nc1sc(C(=O)Nc2ccccc2)c(C)c1C(=O)OC` as the compound, how does the AC50 [9] read?
**A.** 26 µM (active)

**Q.** What does the source list for `O=S(=O)(/C=C/C=C/S(=O)(=O)c1ccccc1)c1ccccc1`?
**A.** IC50 (CHO): 0.959 µM (active); IC50 (Beta Lactamase): > 49.8 µM (inactive); IC50 [10]: 1.61 µM (active); CC50 [11]: 0.59 µM (active)

**Q.** Which AC50 [12] does the source give for `CCC(CC)NC(=O)Cc1ccc(-c2ccccc2)cc1` here?
**A.** > 160 µM (inactive)

**Q.** What about the AC50 [13] of the same compound?
**A.** > 70 µM (inactive)

**Q.** For `C[C@H](CO)N1C[C@H](C)[C@@H](CN(C)Cc2ccccc2)Oc2c(NC(=O)Cc3cn(C)c4ccccc34)cccc2C1=O`, which AC50 [14] is on record?
**A.** 40.1 µM (active)

**Q.** And the AC50 [15]?
**A.** 1.97 µM (active)

**Q.** For `C[C@@H]1CN([C@H](C)CO)C(=O)c2c(c3ccccc3n2C)-c2ccccc2CO[C@@H]1CN(C)Cc1cccc(C(F)(F)F)c1`, which AC50 [16] is on record?
**A.** 14.3 µM (active)

**Q.** And the AC50 [17]?
**A.** 3.38 µM (active)

**Q.** And the AC50 [18]?
**A.** 19.6 µM (active)

**Q.** And the AC50 [19]?
**A.** 1.87 µM (active)

**Q.** And the AC50 [20]?
**A.** 1.28 µM (active)

**Q.** And the AC50 [21]?
**A.** 27.2 µM (active)

**Q.** What about the AC50 [22] of the same compound?
**A.** 2.09 µM (active)
